Results as given in patent US20250057791A1, “PROTECTION AGAINST ARTHROPOD PARASITES WITH PURINERGIC RECEPTOR (OPR) ANTAGONISTS” (priority 2021, published 2025).
Several values for one entry are separate records, joined by “and”; a condition that tells them apart may be missing. Identical values can stand only once.

System: A. gambiae labellum ATP-sensitive receptor
Experiment: Effects of metal ions on electrophysiological responses to ATP
Type: cell-based, Anopheles gambiae
Method: The tip recording method was used to record action potentials (spikes) from sensory cells in sensilla on A. gambiae labellum lobes.
Sensilla were exposed to test compounds and PR antagonists for ca. 2-4 s and spikes were counted in the first 2 s of recordings. Up to 4 test compounds were tested on a sensillum to evaluate potential agonists, each presented at 200 pM. To study responses as a function of dose for agonists ATP, adenosine, AMP, AMP-CPP and ATP+adenosine, up to 7 recordings were made at increasing doses of agonist from the same sensillum. […]
Pairwise comparisons of A. gambiae electrophysiological (EP) responses to ATP and adenosine alone and combined with a given dose of PR antagonist, EP responses to ATP alone and combined with a given dose of a metal modulator, and EP responses to ATP prior to and after exposure of a sensillum to a given dose of a PR antagonist were made with a one-tailed Wilcoxon signed-rank test for data showing a non-normal distribution, with a paired Student's t-test for normally distributed data showing homogeneous variance and with a Welch's t-test for normally distributed data showing non-homogeneous variance. […] Percent feeding inhibition induced by PR antagonists in A. stephensi was calculated using Abbott's formula.

Nc1ncnc2c1ncn2[C@@H]1O[C@H](COP(=O)(O)OP(=O)(O)OP(=O)(O)O)[C@@H](O)[C@H]1O [ATP, Adenosine 5′-triphosphate]
Mean no. of spikes per 2 s (±s.e.m.) (100 pM ATP alone): 3 ± 1.67 spikes per 2 s | Mean no. of spikes per 2 s (±s.e.m.) (200 pM ATP alone): 24.8 ± 4.84 spikes per 2 s and 28.12 ± 3.5 spikes per 2 s
